The values below come from patent publication US11708348B2, “Protease inhibitors for treatment of coronavirus infections” (The Scripps Research Institute, priority 2021, dated 2023).

In general, EC50 refers to the concentration needed to bring the measured effect to its halfway point.

In the experiment the test system is SARS-CoV-2 strain USA-WA1/2020. Nature of the experiment: microbe, parasite or virus in culture. Type of experiment: cell-based. The following applies: Severe acute respiratory syndrome coronavirus 2, HeLa-ACE2, 24 h, HeLa-ACE2 cells, SARS-CoV-2 infection, 24 h; read-out: EC50, uM (Hela).
`COc1cccc2[nH]c(C(=O)N3C[C@@H]4CCC[C@@H]4[C@H]3C(=O)N[C@@H](C[C@@H]3CCNC3=O)C(=O)COC(F)(F)F)cc12` [Compound 608, (1S,3aR,6aS)-2-(4-methoxy-1H-indole-2-carbonyl)-N-((S)-3-oxo-1-((S)-2-oxopyrrolidin-3-yl)-4-(trifluoromethoxy)butan-2-yl)octahydrocyclopenta[c]pyrrole-1-carboxamide]: the EC50 is less than 0.05 µM.

For `O=C1NCC[C@H]1C[C@H](NC(=O)[C@@H]1[C@H]2CCC[C@H]2CN1C(=O)c1noc2cc(Cl)ccc12)C(=O)COC(F)(F)F` [Compound 609, (1S,3aR,6aS)-2-(6-chlorobenzo[d]isoxazole-3-carbonyl)-N-((S)-3-oxo-1-((S)-2-oxopyrrolidin-3-yl)-4-(trifluoromethoxy)butan-2-yl)octahydrocyclopenta[c]pyrrole-1-carboxamide], the EC50 is less than 0.05 µM.

As to `O=C(Nc1ccccc1OC(F)(F)F)C(=O)N1CC2(CC2)C[C@H]1C(=O)N[C@@H](C[C@@H]1CCNC1=O)C(=O)COC(F)(F)F` [Compound 610, (S)-N-((S)-3-oxo-1-((S)-2-oxopyrrolidin-3-yl)-4-(trifluoromethoxy)butan-2-yl)-5-(2-oxo-2-((2-(trifluoromethoxy)phenyl)amino)acetyl)-5-azaspiro[2.4]heptane-6-carboxamide], the EC50 is less than 0.05 µM.

Regarding `O=C1NCC[C@H]1C[C@H](NC(=O)[C@@H]1[C@H]2CCC[C@H]2CN1C(=O)c1noc2cc(F)ccc12)C(=O)COC(F)(F)F` [Compound 611, (1S,3aR,6aS)-2-(6-fluorobenzo[d]isoxazole-3-carbonyl)-N-((S)-3-oxo-1-((S)-2-oxopyrrolidin-3-yl)-4-(trifluoromethoxy)butan-2-yl)octahydrocyclopenta[c]pyrrole-1-carboxamide], the EC50 was less than 0.05 µM.

On to `CC(C)(C)c1ccccc1NC(=O)C(=O)N1CC2(CC2)C[C@H]1C(=O)N[C@@H](C[C@@H]1CCNC1=O)C(=O)COC(F)(F)F` [Compound 613, (S)-5-(2-((2-(tert-butyl)phenyl)amino)-2-oxoacetyl)-N-((S)-3-oxo-1-((S)-2-oxopyrrolidin-3-yl)-4-(trifluoromethoxy)butan-2-yl)-5-azaspiro[2.4]heptane-6-carboxamide], for which the EC50 was less than 0.05 µM.

With `O=C1NCC[C@H]1C[C@H](NC(=O)[C@@H]1[C@H]2CCC[C@H]2CN1C(=O)c1noc2ccc(F)cc12)C(=O)COC(F)(F)F` [Compound 614, (1S,3aR,6aS)-2-(5-fluorobenzo[d]isoxazole-3-carbonyl)-N-((S)-3-oxo-1-((S)-2-oxopyrrolidin-3-yl)-4-(trifluoromethoxy)butan-2-yl)octahydrocyclopenta[c]pyrrole-1-carboxamide], the 50% effective concentration (EC50) was less than 0.05 µM.

`CC(C)(C)c1ccccc1NC(=O)C(=O)N1C[C@@H]2CCC[C@@H]2[C@H]1C(=O)N[C@@H](C[C@@H]1CCNC1=O)C(=O)COC(F)(F)F` [Compound 615, (1S,3aR,6aS)-2-(2-((2-(tert-butyl)phenyl)amino)-2-oxoacetyl)-N-((S)-3-oxo-1-((S)-2-oxopyrrolidin-3-yl)-4-(trifluoromethoxy)butan-2-yl)octahydrocyclopenta[c]pyrrole-1-carboxamide]: the concentration for a half-maximal effect (EC50) was less than 0.05 µM.

Consider `O=C1NCC[C@H]1C[C@H](NC(=O)[C@@H]1CC2(CC2)CN1C(=O)C(F)(F)c1ccccc1)C(=O)COC(F)(F)F` [Compound 616, (S)-5-(2,2-difluoro-2-phenylacetyl)-N-((S)-3-oxo-1-((S)-2-oxopyrrolidin-3-yl)-4-(trifluoromethoxy)butan-2-yl)-5-azaspiro[2.4]heptane-6-carboxamide], for which the EC50 was less than 0.05 µM.

Take `CCCCC(=O)N1CC2(CC2)C[C@H]1C(=O)N[C@@H](C[C@@H]1CCNC1=O)C(=O)COC(F)(F)F` [Compound 618, (S)-N-((S)-3-oxo-1-((S)-2-oxopyrrolidin-3-yl)-4-(trifluoromethoxy)butan-2-yl)-5-pentanoyl-5-azaspiro[2.4]heptane-6-carboxamide]: the EC50 fell in the range of 0.05 to 0.2 µM.
